In patent US11479546B2, “Antimalarial hexahydropyrimidine analogues” (UCB Biopharma SRL, priority 2018, dated 2022):

The compounds below were run on Plasmodium falciparum 3D7 (assay: P. falciparum 3D7 asexual blood stage assay, Assay Procedure Version 1 (SYBR green readout)). Settings: 3D7, Erythrocyte, Version 1 of the assay procedure (no asterisk), 72 h incubation in infected erythrocytes, 10,000 nM to 0.51 nM.
Type: cell-based
Experimental: Asexual Blood Stage Assay
The assay used to measure the effect of test compounds on a bloodstream stage of Plasmodium falciparum 3D7 strain employs SYBR green as the readout. This is a dye that binds to double stranded deoxyribonucleic acid (DNA) with a resulting increase in fluorescence, allowing detection of P. falciparum DNA in infected erythrocytes, and thereby providing a measure of parasite growth and propagation.
P. falciparum Culture Maintenance
Erythrocytes (A+blood) were prepared for both parasite culture and assay by washing 4 times with incomplete media (15.9 g RPMI 1640 (25 mM HEPES, L-glutamine), 1 g NaHCO3, 2 g glucose, 400 μL gentacin (500 mg/mL), 2 mL hypoxanthine solution (13.6 g/L in 0.1M NaOH pH 7.3) in 1 litre of media). The cells were centrifuged at 1800 g for 5 minutes, before decanting the supernatant and re-suspending in fresh incomplete media. On the final wash, the cells were re-suspended in complete media (incomplete media with 5 g/L AlbumaxII), and centrifuged at 1800 g for 3 minutes. This cell sediment was treated as 100% haematocrit.
P. falciparum 3D7 was cultured in erythrocytes at 5% haematocrit in complete media at 37° C. (1% O2, 3% CO2, balance N2). Cultures were split on a weekly basis to achieve a 1% parasitaemia in erythrocites at 5% haematocrit in fresh media. Culture media is replaced by fresh media every other day (2 times during the week).
Assay Procedure—Version 1
On day 1, test compounds were added to assay plates using Echo dispensing technology (3 fold dilution and 10 points titration). 50 nL of each compound dilution was added to 50 μL of culture (5% haematocrit, 0.5% parasitaemia) and incubated for 72 h at 37° C. (1% O2, 3% CO2, balance N2). Final concentrations of test compounds ranged from 10,000 nM to 0.51 nM, in […].
On day 4, 10 μL SYBR green (Invitrogen S7563 supplied as 10,000×concentrate in DMSO) pre-diluted to 3× concentrate with Lysis buffer (20 mM Tris pH 7.9, 5% EDTA, 0.16% w/v, 1.6% TX100 v/v) was added to the cultures and incubated in the dark, overnight, at room temperature.
On day 5, fluorescent signal was measured using a BioTek plate reader (excitation 485 nm, emission 528 nm). All data were processed using IDBS ActivityBase. Raw data were converted into percent inhibition through linear regression by setting the high inhibition control as 100% and the no inhibition control as 0%. Quality control criteria for passing plates were as follows: Z′>0.5, S:B>3, % CV(no inhibition control)<15. The formula used to calculate Z′ is
All EC50 curve fitting was undertaken using the following 4 parametric equation:
[formula] where A=% inhibition at bottom; B=% inhibition at top; C=EC50; D=slope; x=inhibitor concentration; and y=% inhibition. […] Assay Procedure—Version 2

Point of comparison: `Cc1ccc(Nc2c(F)ccc([C@]3(C)CC(=O)N(C4CCOCC4)C(=N)N3)c2Cl)cn1` [Example 207, (6S)-6-{2-Chloro-4-fluoro-3-[(6-methylpyridin-3-yl)amino]phenyl}-2-imino-6-methyl-3-(tetrahydropyran-4-yl)hexahydropyrimidin-4-one], IC50 659 nM. Against it:
- COc1ccc(Nc2cccc([C@]3(C)CC(=O)N(C4CCOCC4)C(=N)N3)c2Cl)cc1 [Example 159, (6S)-6-[2-Chloro-3-(4-methoxy-anilino)phenyl]-2-imino-6-methyl-3-(tetrahydropyran-4-yl)hexahydropyrimidin-4-one] — 3.5-fold higher, 2280 nM
- C[C@@]1(c2cccc(Nc3ccc(F)cc3F)c2Cl)CC(=O)N([C@H]2C[C@@](C)(O)C2)C(=N)N1 [Example 120, (6S)-6-[2-Chloro-3-(2,4-difluoroanilino)phenyl]-3-(3-hydroxy-3-methylcyclobutyl)-2-imino-6-methylhexahydro-pyrimidin-4-one] — within 1.5-fold, 652 nM
- COc1ccc(Nc2cccc([C@]3(C)CC(=O)N(C4CCOCC4)C(=N)N3)c2Cl)cc1OC [Example 164, (6S)-6-[2-Chloro-3-(3,4-dimethoxyanilino)phenyl]-2-imino-6-methyl-3-(tetrahydro-pyran-4-yl)hexahydropyrimidin-4-one] — 3.3-fold higher, 2200 nM
- C[C@@]1(c2cccc(Nc3ccccc3)c2Cl)CC(=O)N([C@H]2C[C@@](C)(O)C2)C(=N)N1 [Example 13, (6S)-6-(3-Anilino-2-chloro-phenyl)-3-(3-hydroxy-3-methyl-cyclobutyl)-2-imino-6-methyl-hexahydropyrimidin-4-one] — 2.9-fold lower, 230 nM
- C[C@@]1(c2cccc(Nc3ccc(C(F)(F)F)cc3)c2Cl)CC(=O)N(C2CCOCC2)C(=N)N1 [Example 11, (6S)-6-{2-Chloro-3-[4-(tri-fluoromethyl)anilino]phenyl}-2-imino-6-methyl-3-(tetrahydro-pyran-4-yl)hexahydropyrimidin-4-one] — within 1.5-fold, 820 nM
- Cc1ccccc1Nc1cccc([C@]2(C)CC(=O)N(C3CCOCC3)C(=N)N2)c1Cl [Example 165, (6S)-6-[2-Chloro-3-(2-methyl-anilino)phenyl]-2-imino-6-methyl-3-(tetrahydropyran-4-yl)hexahydropyrimidin-4-one] — within 1.5-fold, 890 nM
- C[C@@]1(c2cccc(Nc3ccccc3)c2Cl)CC(=O)N(C2CCOCC2)C(=N)N1 [Example 2, (6S)-6-(3-Anilino-2-chloro-phenyl)-2-imino-6-methyl-3-(tetrahydropyran-4-yl)-hexahydropyrimidin-4-one] — 4.4-fold lower, 150 nM
- C[C@@]1(c2cccc(Nc3ccc(F)cc3)c2Cl)CC(=O)N(CC2CCOCC2)C(=N)N1 (single isomer, unassigned) [Example 170, (6S*)-6-[2-Chloro-3-(4-fluoro-anilino)phenyl]-2-imino-6-methyl-3-(tetrahydropyran-4-ylmethyl)hexahydropyrimidin-4-one] — within 1.5-fold, 492 nM
- C[C@@]1(c2cccc(Nc3ccccc3C(F)(F)F)c2Cl)CC(=O)N(C2CCOCC2)C(=N)N1 [Example 16, (6S)-6-{2-Chloro-3-[2-(trifluoromethyl)anilino]-phenyl}-2-imino-6-methyl-3-(tetrahydropyran-4-yl)-hexahydropyrimidin-4-one] — 3.5-fold higher, 2290 nM
- CC1(O)CC(N2C(=N)N[C@](C)(c3cccc(Nc4ccc(F)cc4)c3Cl)CC2=O)C1 (stereo partly drawn) [Example 172, (6S)-6-[2-Chloro-3-(4-fluoro-anilino)phenyl]-3-(3-hydroxy-3-methylcyclobutyl)-2-imino-6-methylhexahydropyrimidin-4-one] — 2.9-fold lower, 228 nM
- C[C@@]1(c2cccc(Nc3ccccc3F)c2Cl)CC(=O)N(C2CCOCC2)C(=N)N1 [Example 36, (6S)-6-[2-Chloro-3-(2-fluoro-anilino)phenyl]-2-imino-6-methyl-3-(tetrahydropyran-4-yl)hexahydropyrimidin-4-one] — 4.4-fold higher, 2900 nM
- C[C@@]1(c2cccc(Nc3ccccc3)c2Cl)CC(=O)N(C2CCCCC2)C(=N)N1 [Example 4, (6S)-6-(3-Anilino-2-chloro-phenyl)-3-cyclohexyl-2-imino-6-methylhexahydropyrimidin-4-one] — 8.8-fold lower, 75 nM
- C[C@@]1(c2cccc(Nc3cc(Cl)cc(C#N)c3)c2Cl)CC(=O)N(C2CCOCC2)C(=N)N1 [Example 34, 3-Chloro-5-{2-chloro-3-[(4S)-2-imino-4-methyl-6-oxo-1-(tetrahydropyran-4-yl)-hexahydropyrimidin-4-yl]-anilino}benzonitrile] — within 1.5-fold, 790 nM
- Cc1ncc(Nc2cccc([C@]3(C)CC(=O)N(C4CCOCC4)C(=N)N3)c2Cl)cn1 [Example 19, (6S)-6-{2-Chloro-3-[(2-methyl-pyrimidin-5-yl)amino]phenyl}-2-imino-6-methyl-3-(tetrahydro-pyran-4-yl)hexahydropyrimidin-4-one] — 1.5-fold higher, 996 nM
- C[C@@]1(c2cccc(Nc3ccc(C#N)c(Cl)c3)c2Cl)CC(=O)N(C2CCOCC2)C(=N)N1 [Example 24, 2-Chloro-4-{2-chloro-3-[(4S)-2-imino-4-methyl-6-oxo-1-(tetrahydropyran-4-yl)-hexahydropyrimidin-4-yl]-anilino}benzonitrile] — 2.5-fold higher, 1670 nM
- C[C@@]1(c2cccc(Nc3cc(C(F)(F)F)cnc3Cl)c2Cl)CC(=O)N(C2CCOCC2)C(=N)N1 [Example 32, (6S)-6-(2-Chloro-3-{[2-chloro-5-(trifluoromethyl)pyridin-3-yl]amino}phenyl)-2-imino-6-methyl-3-(tetrahydropyran-4-yl)hexahydropyrimidin-4-one] — within 1.5-fold, 851 nM
- C[C@@]1(c2cccc(Nc3ccc(C(F)(F)F)cc3)c2Cl)CC(=O)N(CC2CCOCC2)C(=N)N1 [Example 173, (6S)-6-{2-Chloro-3-[4-(trifluoromethyl)anilino]-phenyl}-2-imino-6-methyl-3-(tetrahydropyran-4-ylmethyl)-hexahydropyrimidin-4-one] — 2.3-fold higher, 1540 nM
- C[C@@]1(c2cccc(Nc3ccc(F)cc3)c2Cl)CC(=O)N([C@H]2C[C@@H]3CC[C@H]2O3)C(=N)N1 (racemic) [Example 188, (6S)-6-[2-Chloro-3-(4-fluoro-anilino)phenyl]-2-imino-6-methyl-3-[(1RS,2SR,4SR)-7-oxabicyclo[2.2.1]heptan-3-yl]-hexahydropyrimidin-4-one] — 5.3-fold higher, 3460 nM
- C[C@@]1(c2cccc(Nc3ccc(F)cc3)c2Cl)CC(=O)N([C@@H]2CCOC2)C(=N)N1 (relative stereo) [Example 169, (6S)-6-[2-Chloro-3-(4-fluoro-anilino)phenyl]-2-imino-6-methyl-3-[(3R*)-tetrahydro-furan-3-yl]hexahydropyrimidin-4-one] — 2-fold lower, 323 nM
- C[C@@]1(c2cccc(Nc3cccc(Cl)c3)c2Cl)CC(=O)N(C2CCOCC2)C(=N)N1 [Example 7, (6S)-6-[2-Chloro-3-(3-chloro-anilino)phenyl]-2-imino-6-methyl-3-(tetrahydropyran-4-yl)hexahydropyrimidin-4-one] — 2-fold lower, 334 nM
- C[C@@]1(c2cccc(Nc3cccc(C(F)(F)F)c3)c2Cl)CC(=O)N(C2CCOCC2)C(=N)N1 [Example 163, (6S)-6-{2-Chloro-3-[3-(trifluoromethyl)anilino]-phenyl}-2-imino-6-methyl-3-(tetrahydropyran-4-yl)-hexahydropyrimidin-4-one] — within 1.5-fold, 913 nM
- C[C@@]1(c2cccc(Nc3cn4ccccc4n3)c2Cl)CC(=O)N(C2CCOCC2)C(=N)N1 [Example 35, (6S)-6-[2-Chloro-3-(imidazo-[1,2-a]pyridin-2-ylamino)-phenyl]-2-imino-6-methyl-3-(tetrahydropyran-4-yl)-hexahydropyrimidin-4-one] — 3.6-fold higher, 2380 nM
- C[C@@]1(c2cccc(Nc3ccc(F)c(Cl)c3)c2Cl)CC(=O)N(C2CCOCC2)C(=N)N1 [Example 167, (6S)-6-[2-Chloro-3-(3-chloro-4-fluoroanilino)phenyl]-2-imino-6-methyl-3-(tetrahydropyran-4-yl)hexahydropyrimidin-4-one] — within 1.5-fold, 627 nM
- C[C@@]1(c2cccc(Nc3cccnc3C(F)(F)F)c2Cl)CC(=O)N(C2CCOCC2)C(=N)N1 [Example 26, (6S)-6-(2-Chloro-3-{[2-(trifluoromethyl)pyridin-3-yl]amino}phenyl)-2-imino-6-methyl-3-(tetrahydropyran-4-yl)hexahydropyrimidin-4-one] — 2-fold lower, 331 nM
